Source: paper PMC12677699, “Utilizing Proteolytic‐Resistant Nano‐Short Peptide Based on Naphthyl Tail‐Anchored to Combat Bacterial Infections” (Advanced Science, 2025)
≈ marks a conversion by molar mass, not a printed value. Non-standard residues stand in square brackets, D forms with d. Residues, ends and D or L forms follow the SMILES beside them. ξ: configuration not given here. 2Nal = N[C@@H](Cc1ccc2ccccc2c1)C(=O)O; Ahp(2) = CCCCC[C@H](N)C(=O)O; ξAhp(2) = CCCCCC(N)C(=O)O

What was measured:
A. baumannii AB1901 = assay: MIC against clinical strain; type: cell-based; settings: Acinetobacter baumannii, AB1901, read-out: MIC, A. baumannii AB1901
Protocol: (§1) The MIC values of the nano‐short peptides were determined according to standard protocols.^[ [63] ^] Bacterial strains were revived from cryopreservation and cultured in Mueller–Hinton broth (MHB) to logarithmic growth phase, then diluted to a final density of 0.5–1 × 10⁶ CFU mL^−1. Serial dilutions of the nano‐short peptides were prepared in 0.2% bovine serum albumin (BSA) using a 96‐well plate format. Equal volumes of peptide solutions and bacterial suspensions were combined and incubated at 37 °C for 20–22 h. Bacterial growth was assessed by measuring absorbance at 492 nm, with MHB alone (negative control) and untreated bacterial suspension (positive control) included for reference.

A. baumannii AB1902 = assay: MIC against clinical strain; type: cell-based; settings: Acinetobacter baumannii, AB1902, read-out: MIC, A. baumannii AB1902
Protocol: as §1

P. aeruginosa 25349 = assay: MIC against clinical strain; type: cell-based; settings: Pseudomonas aeruginosa, 25349, read-out: MIC, P. aeruginosa 25349
Protocol: as §1

S. aureus 11011 = assay: MIC against clinical strain; type: cell-based; settings: Staphylococcus aureus, 11011, read-out: MIC, S. aureus 11011
Protocol: as §1

E. coli ATCC 25922 [1] = assay: Drug resistance assay, 30 serial passages; type: cell-based, Escherichia coli; settings: E. coli ATCC 25922, 30 successive passages at sub-MIC concentrations
Protocol: (§2) The potential resistance development of nano‐short peptides was evaluated through 30 serial passages of E. coli ATCC 25922 and S. aureus ATCC 29213 in sub‐MIC conditions,^[ [38] ^] using gentamicin as control.

S. aureus ATCC 29213 = assay: Drug resistance assay, 30 serial passages; type: cell-based, Staphylococcus aureus; settings: S. aureus ATCC 29213, 30 successive passages at sub-MIC concentrations; gentamicin by day 17
Protocol: as §2

E. coli 078 = type: cell-based, Escherichia coli
Protocol: as §1

E. coli 25922 = type: cell-based, Escherichia coli
Protocol: as §1

E. coli UB1005 = type: cell-based, Escherichia coli
Protocol: as §1

P. aeruginosa 27853 = type: cell-based, Pseudomonas aeruginosa
Protocol: as §1

P. aeruginosa PAO1 = type: cell-based, Pseudomonas aeruginosa
Protocol: as §1

S. pullorum C7913 = type: cell-based
Protocol: as §1

S. typhimurium 14028 = type: cell-based, Salmonella typhimurium
Protocol: as §1

S. typhimurium 7731 = type: cell-based, Salmonella typhimurium
Protocol: as §1

S. aureus 25923 = type: cell-based, Staphylococcus aureus
Protocol: as §1

S. aureus 29213 = type: cell-based, Staphylococcus aureus
Protocol: as §1

MRSA 43300 = type: cell-based, Methicillin-Resistant Staphylococcus aureus
Protocol: as §1

E. faecalis 29212 = type: cell-based, Enterococcus faecalis
Protocol: as §1

S. epidermidis 12228 = type: cell-based, Staphylococcus epidermidis
Protocol: as §1

[2] = Critical aggregation concentration, 1,8-ANS fluorescence; type: physicochemical; settings: 1,8-ANS 1 × 10^−6 M, peptide 2-256 × 10^−6 M in deionized water, 1 h, ex 360 nm, em 420–670 nm, linear fitting of fluorescence intensities
Protocol: The self‐assembly behavior of nano‐short peptides was characterized by determining the CAC using 1,8‐ANS as a hydrophobic fluorescent probe.^[ [32] ^] Serial peptide dilutions (2‐256 × 10^−6 M in 50 µL deionized water) were prepared in 96‐well plates. 1,8‐ANS powder was solubilized in dimethylformamide (DMF) and added to the 96‐well plates (final concentration of 1 × 10^−6 M), and deionized water solution containing 1,8‐ANS was used as a blank control. After incubation for 1 h, the fluorescence emission spectra were continuously monitored with a microplate reader (Tecan Infinite200 Pro, λ excitation = 360 nm, λ emission = 420–670 nm). CAC values were determined by linear fitting of representative fluorescence intensities.

E. coli ATCC 25922 [3] = assay: Serum tolerance assay (MIC after incubation with serum); type: cell-based, Escherichia coli; settings: 4 h of incubation with various serum concentrations
Protocol: The serum stability of nano‐short peptides was evaluated by incubating peptide solutions with fetal bovine serum (FBS), which was at concentrations of 25%, 50%, and 100% (diluted in 0.2% BSA solution). Following 4 h of incubation, the antimicrobial activity was determined by measuring the MIC against the test strains.

Compound	MIC, E. coli 078 (E. coli 078) [µM]	MIC, E. coli 25922 (E. coli 25922) [µM]	MIC, E. coli UB1005 (E. coli UB1005) [µM]	MIC, P. aeruginosa 27853 (P. aeruginosa 27853) [µM]	MIC, P. aeruginosa PAO1 (P. aeruginosa PAO1) [µM]	MIC, S. pullorum C7913 (S. pullorum C7913) [µM]	MIC, S. typhimurium 14028 (S. typhimurium 14028) [µM]	MIC, S. typhimurium 7731 (S. typhimurium 7731) [µM]	MIC, S. aureus 25923 (S. aureus 25923) [µM]	MIC, S. aureus 29213 (S. aureus 29213) [µM]	MIC, MRSA 43300 (MRSA 43300) [µM]	MIC, E. faecalis 29212 (E. faecalis 29212) [µM]	MIC, S. epidermidis 12228 (S. epidermidis 12228) [µM]	critical aggregation concentration (CAC) [2] [µM]	other results
CNC(C)C1CCC(N)C(OC2C(N)CC(N)C(OC3OCC(C)(O)C(NC)C3O)C2O)O1 (centres unmarked) [Gentamicin]	–	–	–	–	–	–	–	–	–	–	–	–	–	–	MIC (A. baumannii AB1901): 2 µM (≈ 0.955 µg/mL); MIC (A. baumannii AB1902): 128 µM (≈ 61.1 µg/mL); MIC (P. aeruginosa 25349): 128 µM (≈ 61.1 µg/mL); MIC (S. aureus 11011): 128 µM (≈ 61.1 µg/mL); increase in MIC values after serial passage (E. coli ATCC 25922 [1]): 128 fold; increase in MIC values after serial passage (S. aureus ATCC 29213): 128 fold
CCCCCC(N)C(=O)NC(CCCCC)C(=O)NC(CCCCC)C(=O)NC(CCCCC)C(=O)NC(CCCCC)C(=O)N[C@H](CCCNC(=N)N)C(=O)N[C@@H](CCCNC(=N)N)C(=O)N[C@@H](CCCNC(=N)N)C(=O)N1CCC[C@H]1C(=O)O (some centres unmarked) [Peptide B5] (H-[ξAhp(2)][ξAhp(2)][ξAhp(2)][ξAhp(2)][ξAhp(2)][dR]RRP-OH; N-terminus assumed)	256 (≈ 312 µg/mL)	256 (≈ 312 µg/mL)	256 (≈ 312 µg/mL)	256 (≈ 312 µg/mL)	256 (≈ 312 µg/mL)	128 (≈ 156 µg/mL)	256 (≈ 312 µg/mL)	256 (≈ 312 µg/mL)	256 (≈ 312 µg/mL)	256 (≈ 312 µg/mL)	32 (≈ 39 µg/mL)	256 (≈ 312 µg/mL)	256 (≈ 312 µg/mL)	3.34	–
CCCCC[C@H](NC(=O)[C@H](CCCCC)NC(=O)[C@H](CCCCC)NC(=O)[C@@H](N)CCCCC)C(=O)N[C@@H](CCCCC)C(=O)N[C@@H](CCCCC)C(=O)N[C@H](CCCNC(=N)N)C(=O)N[C@@H](CCCNC(=N)N)C(=O)N[C@@H](CCCNC(=N)N)C(=O)N1CCC[C@H]1C(=O)O [Peptide B6] (H-[Ahp(2)][Ahp(2)][Ahp(2)][Ahp(2)][Ahp(2)][Ahp(2)][dR]RRP-OH; N-terminus and C-terminus assumed)	256 (≈ 345 µg/mL)	256 (≈ 345 µg/mL)	256 (≈ 345 µg/mL)	256 (≈ 345 µg/mL)	256 (≈ 345 µg/mL)	256 (≈ 345 µg/mL)	256 (≈ 345 µg/mL)	256 (≈ 345 µg/mL)	256 (≈ 345 µg/mL)	256 (≈ 345 µg/mL)	256 (≈ 345 µg/mL)	256 (≈ 345 µg/mL)	256 (≈ 345 µg/mL)	3.31	–
N=C(N)NCCC[C@H](NC(=O)[C@H](Cc1ccc2ccccc2c1)NC(=O)[C@H](Cc1ccc2ccccc2c1)NC(=O)[C@@H](N)Cc1ccc2ccccc2c1)C(=O)N[C@H](CCCNC(=N)N)C(=O)N[C@@H](CCCNC(=N)N)C(=O)N1CCC[C@H]1C(=O)O [Peptide N3] (H-[2Nal][2Nal][2Nal]R[dR]RP-OH)	8 (≈ 9.4 µg/mL)	16 (≈ 18.8 µg/mL)	8 (≈ 9.4 µg/mL)	8 (≈ 9.4 µg/mL)	16 (≈ 18.8 µg/mL)	16 (≈ 18.8 µg/mL)	32 (≈ 37.6 µg/mL)	32 (≈ 37.6 µg/mL)	16 (≈ 18.8 µg/mL)	16 (≈ 18.8 µg/mL)	16 (≈ 18.8 µg/mL)	16 (≈ 18.8 µg/mL)	16 (≈ 18.8 µg/mL)	62.79	antimicrobial capacity after serum incubation (E. coli ATCC 25922 [3]): retained their original antimicrobial capacity
N=C(N)NCCC[C@H](NC(=O)[C@H](Cc1ccc2ccccc2c1)NC(=O)[C@H](Cc1ccc2ccccc2c1)NC(=O)[C@H](Cc1ccc2ccccc2c1)NC(=O)[C@H](Cc1ccc2ccccc2c1)NC(=O)[C@@H](N)Cc1ccc2ccccc2c1)C(=O)N[C@H](CCCNC(=N)N)C(=O)N[C@@H](CCCNC(=N)N)C(=O)N1CCC[C@H]1C(=O)O [Peptide N5] (H-[2Nal][2Nal][2Nal][2Nal][2Nal]R[dR]RP-OH)	256 (≈ 402 µg/mL)	256 (≈ 402 µg/mL)	256 (≈ 402 µg/mL)	256 (≈ 402 µg/mL)	256 (≈ 402 µg/mL)	256 (≈ 402 µg/mL)	256 (≈ 402 µg/mL)	256 (≈ 402 µg/mL)	256 (≈ 402 µg/mL)	256 (≈ 402 µg/mL)	256 (≈ 402 µg/mL)	256 (≈ 402 µg/mL)	256 (≈ 402 µg/mL)	11.66	–
N=C(N)NCCC[C@H](NC(=O)[C@H](Cc1ccc2ccccc2c1)NC(=O)[C@H](Cc1ccc2ccccc2c1)NC(=O)[C@H](Cc1ccc2ccccc2c1)NC(=O)[C@H](Cc1ccc2ccccc2c1)NC(=O)[C@H](Cc1ccc2ccccc2c1)NC(=O)[C@@H](N)Cc1ccc2ccccc2c1)C(=O)N[C@H](CCCNC(=N)N)C(=O)N[C@@H](CCCNC(=N)N)C(=O)N1CCC[C@H]1C(=O)O [Peptide N6] (H-[2Nal][2Nal][2Nal][2Nal][2Nal][2Nal]R[dR]RP-OH)	256 (≈ 452 µg/mL)	256 (≈ 452 µg/mL)	256 (≈ 452 µg/mL)	256 (≈ 452 µg/mL)	256 (≈ 452 µg/mL)	256 (≈ 452 µg/mL)	256 (≈ 452 µg/mL)	256 (≈ 452 µg/mL)	256 (≈ 452 µg/mL)	256 (≈ 452 µg/mL)	256 (≈ 452 µg/mL)	256 (≈ 452 µg/mL)	256 (≈ 452 µg/mL)	6.65	–
